Results taken from patent publication US9546164B2 (GENENTECH, INC., priority 2013, dated 2017).
Counter-ions that a name gives are not always drawn. Like-named read-outs stand apart in the source and are kept apart here.

Target: hNav1.7 (Homo sapiens (Human), UniProt Q15858)
Assay: Tritiated sulfonamide competitive binding to membranes from cells expressing hNav1.7 and the β1 subunit;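 note: Filter-bound radioactivity counted by liquid scintillation, nonspecific binding defined with excess unlabelled ligand, IC50 fitted to percent inhibition of specific binding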
[1] = read-out: Ligand Binding Assay, 100 pM [3H]compound, membranes with hNav1.7 and β1 subunit, 18 h, room temperature

Chain of hNav1.7 (Q15858 other isoform, or with tags, fused parts or gaps): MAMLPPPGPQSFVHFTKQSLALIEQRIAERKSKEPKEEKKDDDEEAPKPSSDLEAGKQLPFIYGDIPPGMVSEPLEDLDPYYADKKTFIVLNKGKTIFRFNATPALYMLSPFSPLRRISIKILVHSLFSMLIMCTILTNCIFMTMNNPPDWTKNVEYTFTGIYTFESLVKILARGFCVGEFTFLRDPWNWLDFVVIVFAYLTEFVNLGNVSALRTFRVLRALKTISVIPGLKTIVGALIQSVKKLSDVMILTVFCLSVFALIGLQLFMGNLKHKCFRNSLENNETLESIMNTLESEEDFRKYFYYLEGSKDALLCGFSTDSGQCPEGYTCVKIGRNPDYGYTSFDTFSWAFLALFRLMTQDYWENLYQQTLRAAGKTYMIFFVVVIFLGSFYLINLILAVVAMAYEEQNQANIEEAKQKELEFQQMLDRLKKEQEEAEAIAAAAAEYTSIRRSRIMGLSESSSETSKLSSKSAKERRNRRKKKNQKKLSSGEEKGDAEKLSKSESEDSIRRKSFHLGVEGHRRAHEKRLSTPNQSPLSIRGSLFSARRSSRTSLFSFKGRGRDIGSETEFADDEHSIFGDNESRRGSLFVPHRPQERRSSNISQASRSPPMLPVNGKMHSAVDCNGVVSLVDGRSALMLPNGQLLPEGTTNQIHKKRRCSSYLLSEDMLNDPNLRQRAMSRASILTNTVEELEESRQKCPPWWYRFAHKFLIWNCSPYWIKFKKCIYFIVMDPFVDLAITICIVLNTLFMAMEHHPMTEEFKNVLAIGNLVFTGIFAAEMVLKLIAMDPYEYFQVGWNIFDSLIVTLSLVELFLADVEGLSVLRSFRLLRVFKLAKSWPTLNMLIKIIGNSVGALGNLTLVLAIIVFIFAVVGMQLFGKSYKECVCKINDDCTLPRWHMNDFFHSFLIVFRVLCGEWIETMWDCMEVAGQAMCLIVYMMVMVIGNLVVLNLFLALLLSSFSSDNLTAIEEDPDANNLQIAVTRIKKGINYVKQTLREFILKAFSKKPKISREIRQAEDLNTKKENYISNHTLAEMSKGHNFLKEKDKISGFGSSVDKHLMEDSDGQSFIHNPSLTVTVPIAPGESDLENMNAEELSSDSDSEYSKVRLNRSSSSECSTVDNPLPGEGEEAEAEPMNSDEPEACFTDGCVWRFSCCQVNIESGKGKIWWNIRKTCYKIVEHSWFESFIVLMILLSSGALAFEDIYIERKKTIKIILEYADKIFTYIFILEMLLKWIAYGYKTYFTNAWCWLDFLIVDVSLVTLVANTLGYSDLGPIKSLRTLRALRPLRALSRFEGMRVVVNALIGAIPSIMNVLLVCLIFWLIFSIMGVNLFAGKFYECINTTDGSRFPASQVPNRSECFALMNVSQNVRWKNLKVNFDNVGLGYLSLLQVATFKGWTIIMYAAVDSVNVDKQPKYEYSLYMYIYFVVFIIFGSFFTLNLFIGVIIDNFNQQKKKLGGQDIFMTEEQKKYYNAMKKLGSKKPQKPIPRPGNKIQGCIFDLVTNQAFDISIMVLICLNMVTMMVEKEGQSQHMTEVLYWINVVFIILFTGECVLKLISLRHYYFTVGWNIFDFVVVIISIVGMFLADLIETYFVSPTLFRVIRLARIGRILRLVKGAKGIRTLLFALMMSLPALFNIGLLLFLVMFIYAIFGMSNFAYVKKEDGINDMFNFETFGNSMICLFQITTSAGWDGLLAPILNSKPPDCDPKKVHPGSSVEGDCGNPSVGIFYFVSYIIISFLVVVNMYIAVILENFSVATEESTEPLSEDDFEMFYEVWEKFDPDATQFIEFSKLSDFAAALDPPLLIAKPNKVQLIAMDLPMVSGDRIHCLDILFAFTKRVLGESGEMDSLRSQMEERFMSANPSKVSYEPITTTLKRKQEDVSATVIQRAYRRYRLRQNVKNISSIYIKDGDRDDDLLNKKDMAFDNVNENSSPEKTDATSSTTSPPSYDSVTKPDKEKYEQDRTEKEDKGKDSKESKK
Chain of hNav1.7 (Q07699 19-218 partner): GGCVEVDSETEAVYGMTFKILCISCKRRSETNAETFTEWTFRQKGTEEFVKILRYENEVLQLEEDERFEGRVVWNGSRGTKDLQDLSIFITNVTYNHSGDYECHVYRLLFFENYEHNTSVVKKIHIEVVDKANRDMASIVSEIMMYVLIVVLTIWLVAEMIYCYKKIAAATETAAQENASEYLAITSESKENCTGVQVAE

SMILES	IC50 [1] [nM]	other results
CC(c1cc(Cl)cc(Cl)c1)N1CCN(Cc2cc(F)c(C(=O)NS(C)(=O)=O)cc2C2CC2)CC1 (stereo not shown) [Example 540]	7.8	
CS(=O)(=O)NC(=O)c1cc(C2CC2)c(OCC2CN([C@@H](c3ccccc3)c3ccccc3F)C2)cc1F [Example 124, (S)-5-Cyclopropyl-2-fluoro-4-((1-((2-fluorophenyl)(phenyl)methyl)azetidin-3-yl)methoxy)-N-(methylsulfonyl)benzamide]	71.3	
CCS(=O)(=O)NC(=O)c1cc(C2CC2)c(OCC2CCN([C@@H](COC)c3ccc(Cl)cc3Cl)CC2)cc1F [Example 287, (R)-5-cyclopropyl-4-((1-(1-(2,4-dichlorophenyl)-2-methoxyethyl)piperidin-4-yl)methoxy)-N-(ethylsulfonyl)-2-fluorobenzamide]	3.5	
CS(=O)(=O)NC(=O)c1cc(C2CC2)c(CN2CCC(Oc3cccc(C(F)(F)F)c3)CC2)cc1F [Example 501, 5-cyclopropyl-2-fluoro-N-(methylsulfonyl)-4-((4-(3-(trifluoromethyl)phenoxy)piperidin-1-yl)methyl)benzamide, trifluoroacetic acid salt]		IC50: 13.4 nM
O=C(NS(=O)(=O)C1CC1)c1cc(C2CC2)c(CN2CCC(Oc3ccc(F)cc3Cl)CC2)cc1F [Example 506, trifluoroacetic acid salt]		IC50 (read-out: Ligand Binding Assay, 100 pM [3H]compound, membranes with hNav1.7 and β1 subunit, 18 h, room temperature, trifluoroacetic acid salt): 14.3 nM
CS(=O)(=O)NC(=O)c1cc(C2CC2)c(CN2CCC(Oc3ccc(Cl)c(C(F)(F)F)c3)CC2)cc1F [Example 519, 4-((4-(4-chloro-3-(trifluoromethyl)phenoxy)piperidin-1-yl)methyl)-5-cyclopropyl-2-fluoro-N-(methylsulfonyl)benzamide, trifluoroacetic acid salt]		IC50: 8.1 nM
CS(=O)(=O)NC(=O)c1cc(C2CC2)c(CN2CCC(Oc3ccccc3C(F)(F)F)CC2)cc1F [Example 497, 5-cyclopropyl-2-fluoro-N-(methylsulfonyl)-4-((4-(2-(trifluoromethyl)phenoxy)piperidin-1-yl)methyl)benzamide]		IC50: 14.3 nM
CS(=O)(=O)NC(=O)c1cc(C2CC2)c(OCC2CN([C@H](c3ccccc3)c3ccccc3F)C2)cc1F [Example 125, (R)-5-Cyclopropyl-2-fluoro-4-((1-((2-fluorophenyl)(phenyl)methyl)azetidin-3-yl)methoxy)-N-(methylsulfonyl)benzamide]	25	
C[C@H](c1ccc(F)cc1Cl)N1CCC[C@@H](Oc2cc(F)c(C(=O)NS(C)(=O)=O)cc2C2CC2)C1 [Example 296, 4-(((R)-1-((R)-1-(2-chloro-4-fluorophenyl)ethyl)piperidin-3-yl)oxy)-5-cyclopropyl-2-fluoro-N-(methylsulfonyl)benzamide]	8.1	
CS(=O)(=O)NC(=O)c1cc(C2CC2)c(CN2CCC(Oc3cc(Cl)cc(OC(F)(F)F)c3)CC2)cc1F [Example 548, 4-((4-(3-chloro-5-(trifluoromethoxy)phenoxy)piperidin-1-yl)methyl)-5-cyclopropyl-2-fluoro-N-(methylsulfonyl)benzamide, trifluoroacetic acid salt]		IC50: 3.7 nM
COC[C@H](c1ccc(F)c(C(F)(F)F)c1)N1CCC(COc2cc(F)c(C(=O)NS(C)(=O)=O)cc2C2CC2)CC1 (single isomer, unassigned) [Example 188]	5.2	
CS(=O)(=O)NC(=O)c1cc(C2CC2)c(OCC2CCN(C(=O)c3ccccc3)CC2)cc1F [Example 197, 4-((1-Benzoylpiperidin-4-yl)methoxy)-5-cyclopropyl-2-fluoro-N-(methylsulfonyl)benzamide]	3200	
CCS(=O)(=O)NC(=O)c1cc(C2CC2)c(OCC2CCN(C(C)c3cc(Cl)cc(Cl)c3)CC2)cc1F (stereo not shown) [Example 101, 5-Cyclopropyl-4-((1-(1-(3,5-dichlorophenyl)ethyl)piperidin-4-yl)methoxy)-N-(ethylsulfonyl)-2-fluorobenzamide]	3.76	
CC1(COc2cc(F)c(C(=O)NS(C)(=O)=O)cc2C2CC2)CCN(Cc2cc(Cl)cc(C(F)(F)F)c2)CC1 [Example 140, 4-((1-(3-chloro-5-(trifluoromethyl)benzyl)-4-methylpiperidin-4-yl)methoxy)-5-cyclopropyl-2-fluoro-N-(methylsulfonyl)benzamide]	3.5	
O=C(NS(=O)(=O)C1CC1)c1cc(C2CC2)c(OCC2CCN(S(=O)(=O)c3cc(Cl)cc(Cl)c3)CC2)cc1F [Example 275, 5-Cyclopropyl-N-(cyclopropylsulfonyl)-4-((1-((3,5-dichlorophenyl)sulfonyl)piperidin-4-yl)methoxy)-2-fluorobenzamide]	6.9	
CS(=O)(=O)NC(=O)c1cc(C2CC2)c(OCC2CCN(Cc3ccc(Cl)c(Cl)c3)CC2)cc1F [Example 147, 5-Cyclopropyl-4-((1-(3,4-dichlorobenzyl)piperidin-4-yl)methoxy)-2-fluoro-N-(methylsulfonyl)benzamide]	6.03	
CS(=O)(=O)NC(=O)c1cc(C2CC2)c(OCC2CN(C(c3ccccc3)c3cccc(F)c3)C2)cc1F (stereo not shown) [Example 154, 5-Cyclopropyl-2-fluoro-4-((1-((3-fluorophenyl)(phenyl)methyl)azetidin-3-yl)methoxy)-N-(methylsulfonyl)benzamide]	9.12	
C[C@@H](c1ccc(Cl)c(C2CC2)n1)N1CCC[C@@H](Oc2cc(F)c(C(=O)NS(C)(=O)=O)cc2C2CC2)C1 [Example 310, 4-(((R)-1-((S)-1-(5-chloro-6-cyclopropylpyridin-2-yl)ethyl)piperidin-3-yl)oxy)-5-cyclopropyl-2-fluoro-N-(methylsulfonyl)benzamide]	2.3	
O=C(NS(=O)(=O)C1CC1)c1cc(C2CC2)c(OCC2CCN(C(=O)c3ccccc3)CC2)cc1F [Example 198, 4-((1-Benzoylpiperidin-4-yl)methoxy)-5-cyclopropyl-N-(cyclopropylsulfonyl)-2-fluorobenzamide]	550	
COC[C@@H](c1cc(Cl)cc(Cl)c1)N1CCC(C)(COc2cc(F)c(C(=O)NS(C)(=O)=O)cc2C2CC2)CC1 (single isomer, unassigned) [Example 172]	3.9	
C[C@H](c1cc(Cl)cc(C(F)(F)F)c1)N1CCC(C)(COc2cc(F)c(C(=O)NS(C)(=O)=O)cc2C2CC2)CC1 (single isomer, unassigned) [Example 278]	3.3	
O=C(NS(=O)(=O)C1CC1)c1cc(C2CC2)c(OCC2CCN(C(=O)c3cccc(Cl)c3)CC2)cc1F [Example 196, 4-((1-(3-Chlorobenzoyl)piperidin-4-yl)methoxy)-5-cyclopropyl-N-(cyclopropylsulfonyl)-2-fluorobenzamide]	43	
CS(=O)(=O)NC(=O)c1cc(C2CC2)c(CN2CCC(Oc3ncc(C(F)(F)F)cc3Cl)CC2)cc1F [Example 523, 4-((4-((3-chloro-5-(trifluoromethyl)pyridin-2-yl)oxy)piperidin-1-yl)methyl)-5-cyclopropyl-2-fluoro-N-(methylsulfonyl)benzamide, trifluoroacetic acid salt]		IC50: 5.8 nM
C[C@H](c1cc(Cl)cc(Cl)c1)N1CCC(C)(COc2cc(F)c(C(=O)NS(C)(=O)=O)cc2C2CC2)CC1 (single isomer, unassigned) [Example 212]	2.7	
C[C@H](c1ccc(OC(F)(F)F)cc1)N1CCC(C)(COc2cc(F)c(C(=O)NS(C)(=O)=O)cc2C2CC2)CC1 (single isomer, unassigned) [Example 249]	39	

Second part, led by results:

IC50 [1] [nM]	SMILES	other results
107	CS(=O)(=O)NC(=O)c1cc(C2CC2)c(O[C@H]2CCCN(Cc3ccc(F)cc3Cl)C2)cc1F [Example 573, (S)-4-((1-(2-chloro-4-fluorobenzyl)piperidin-3-yl)oxy)-5-cyclopropyl-2-fluoro-N-(methylsulfonyl)]	
3.7	CS(=O)(=O)NC(=O)c1cc(C2CC2)c(OCC2CCN(Cc3cc(C(F)(F)F)ccc3Cl)CC2)cc1F [Example 580, 4-((1-(2-chloro-5-(trifluoromethyl)benzyl)piperidin-4-yl)methoxy)-5-cyclopropyl-2-fluoro-N-(methylsulfonyl)benzamide]	
258	C[C@@H](c1cc(Cl)cc(Cl)c1)N1CCC(C#N)(COc2cc(F)c(C(=O)NS(C)(=O)=O)cc2C2CC2)CC1 [Example 598]	
98.9	CC1(C)CO[C@H](Cc2cc(Cl)cc(Cl)c2)CN1Cc1cc(F)c(C(=O)NS(C)(=O)=O)cc1C1CC1 [Example 469, (R)-5-cyclopropyl-4-((2-(3,5-dichlorobenzyl)-5,5-dimethylmorpholino)methyl)-2-fluoro-N-(methylsulfonyl)benzamide, trifluoroacetic acid salt]	
2.1	Cc1ccc(CN2CCC[C@@H](Oc3cc(F)c(C(=O)NS(C)(=O)=O)cc3C3CC3)C2)c(C)c1 [Example 423, (R)-5-cyclopropyl-4-((1-(2,4-dimethylbenzyl)piperidin-3-yl)oxy)-2-fluoro-N-(methylsulfonyl)benzamide, trifluoroacetic acid salt]	
8.5	CS(=O)(=O)NC(=O)c1cc(C2CC2)c(OCC2CCN(Cc3cc(Cl)c(F)cc3F)CC2)cc1F [Example 455, trifluoroacetic acid salt]	
4.4	CS(=O)(=O)NC(=O)c1cc(C2CC2)c(CN2CCO[C@H](Cc3ccc(Cl)c(Cl)c3)C2)cc1F [Example 458, (R)-5-cyclopropyl-4-((2-(3,4-dichlorobenzyl)morpholino)methyl)-2-fluoro-N-(methylsulfonyl)benzamide]	
3.8	CS(=O)(=O)NC(=O)c1cc(C2CC2)c(OCC2CCN(Cc3cc(C(F)(F)F)cc(Cl)c3F)CC2)cc1F [Example 581, 4-((1-(3-chloro-2-fluoro-5-(trifluoromethyl)benzyl)piperidin-4-yl)methoxy)-5-cyclopropyl-2-fluoro-N-(methylsulfonyl)benzamide]	
5.6	CC1(COc2cc(F)c(C(=O)NS(=O)(=O)C3CC3)cc2C2CC2)CN(c2cc(Cl)c(C(F)(F)F)cn2)C1 [Example 486, 4-((1-(4-chloro-5-(trifluoromethyl)pyridin-2-yl)-3-methylazetidin-3-yl)methoxy)-5-cyclopropyl-N-(cyclopropylsulfonyl)-2-fluorobenzamide, trifluoroacetic acid salt]	
